Our source for the TGI and GI50 values is PubChem BioAssay (NCI).

Holding throughout (experiment): NCI-60 cell line screen, 48 h
In assay [1] the test system is DMS 114 small cell lung.
Assay [2] deals with KM20L2 colon.
The test system of assay [3] is HOP-18 NSCLC.
Assay [4] relates to SNB-78 CNS.
For assay [5], the system named is LXFL 529 NSCLC.
Assay [6] has as its system XF 498 CNS.
Assay [7] relates to MDA-N.
The subject of assay [8] is T-47D breast.
For assay [9], the system named is RXF-631 renal.

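Results reflect a 48-hour exposure of cells in 96-well plates to compound at five concentrations. Abbreviation: GI50, concentration required for 50% inhibition of growth. At the TGI there is no net growth.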

As to `CN1CCN=C1c1nnn(-c2ccc([N+](=O)[O-])cc2)c1-c1ccccc1`, the TGI in assay [1], in assay [2], in assay [3], in assay [4], in assay [5] and in [6] was greater than 100 µM throughout.

As for `COc1ccc2c(c1O)[C@@]13CCCC=C1[C@@H](C2)[N+](C)(C)CC3`, the TGI in assay [7] and in assay [8] was greater than 100 µM each time.

Take `CC1=NN(c2ccccc2)C(=O)C12[C@H](c1ccccc1)C2(C#N)C#N` (some centres undefined): the TGI came to 27.3 µM in assay [2]; 20.3 µM in [3]; 34 µM in assay [4]; 3.89 µM in assay [5]; 7.22 µM in assay [6].

Regarding `O=C1CC(c2cccc(Cl)c2)Oc2ccccc21` (centres undefined), in assay [8], the TGI worked out at 91.7 µM.

For the compound `COc1c(OC)c(OC)c2c(=O)cc(-c3ccc(OC(C)C)cc3)oc2c1OC`, the TGI in assay [7] is greater than 53.8 µM; in assay [8] it was 42.5 µM.

Regarding `Cc1nn(C)c2ncnc(N/N=C/c3cccc(O)c3O)c12`, in [8], the GI50 is 3.25 µM and the TGI is greater than 100 µM.

`CC12OC(C(=O)C13CC3)C1C(=O)c3c(O)ccc(O)c3C(=O)C12` (centres undefined): in assay [8], the GI50 is 11.6 µM and the TGI stood at 32 µM.

For `O=C1CC(C2(O)C(=O)Nc3ccc([N+](=O)[O-])cc32)c2ccccc21` (centres undefined), the TGI in assay [1] is 23.9 µM; in [3] it was greater than 100 µM; in [4] it was greater than 100 µM; in assay [5], 76.2 µM; in assay [9] it was 31.8 µM.

With `CCOC(=O)c1sc2c(C(=O)OCC)n3cc(C)cc(C)c3c2c1O`, the TGI in assay [1], in assay [2], in assay [4] and in assay [5] was greater than 100 µM in each case.

Consider `CC(C)C1(NC(=O)C2CC3c4cccc5[nH]cc(c45)CC3N(C)C2)OC2(O)C3CCCN3C(=O)C(Cc3ccccc3)N2C1=O` (centres undefined), for which the TGI in assay [7] and in assay [8] was greater than 100 µM each time.

On to `CCCCCCCCCCCNC=O`, for which the TGI in [7] and in [8] was greater than 100 µM each time.

For `O=c1c2ccccc2oc2ccccc12` (tested in a mixture with another compound), the results for the TGI in assay [1] and in [5] were 5.08 µM and greater than 100 µM, respectively.

With `CC(C)=Cc1cc(C)c2ccc(C)c3c2c1C(C)=C(O)C3=O`, in assay [8], the GI50 is 16.9 µM and the TGI came to 52.8 µM.

Take `C=CCC12CC(=O)CCC1c1ccc(OC)cc1C2=O` (centres undefined): the TGI in [1], in assay [2], in assay [3], in assay [4] and in assay [5] was greater than 100 µM in each case.

Regarding `NC(N)=NC(N)=Nc1ccc(C(=O)O)cc1`, the TGI in assay [7] and in assay [8] was greater than 100 µM each time.

With `COC(=O)/C(C#N)=C1\CCC(OC)N1C` (centres undefined), the TGI in assay [1], in assay [2], in assay [3], in assay [4], in assay [5] and in assay [6] was greater than 100 µM each time.

On to `CCC[CH2][Sn]([CH2]CCC)([CH2]CCC)/[C](=C/[Si](C)(C)c1ccccc1)c1ccc2c(c1)OCO2`, for which, in [7], the GI50 was 19.5 µM and the TGI amounted to 40.3 µM. For the same compound, in [8], the GI50 is 24.6 µM and the TGI amounted to 62 µM.

On to `N#CC1=C(N)NC(N2CCOCC2)=NC12Nc1ccccc1O2` (centres undefined), for which, in [8], the GI50 is 80.3 µM and the TGI is greater than 100 µM.

Regarding `COc1cc2c(cc1OC)C(C(CBr)CBr)N(C1CCCC1)CC2` (centres undefined), the TGI in assay [5] and in assay [6] was greater than 100 µM in each case.

Turning to `O=C(O)COc1ccc(OCC(=O)O)cc1`, in assay [8], the GI50 was 0.449 µM and the TGI is 9.31 µM.

With `O=C1CS/C(=N/S(=O)(=O)c2ccc(N3N=C4c5ccccc5CC4C3c3cccs3)cc2)N1C(=O)c1ccccc1` (centres undefined), in [8], the GI50 was greater than 100 µM and the TGI is greater than 100 µM.

Consider `CCCCC#Cc1c(I)n(C2OC(CO[Si](C)(C)C(C)(C)C)C3OC(C)(C)OC32)c(=O)n(C(=O)c2ccccc2)c1=O` (centres undefined), for which, in assay [8], the GI50 is 4.14 µM and the TGI came out at 19.7 µM.

Consider `C=C(C)[C@@H]1CCc2c(O)c(O)c(=O)cc(C)c2C1`, for which the TGI in assay [7] is greater than 100 µM; in assay [8], 23.7 µM.

`COc1ccc(-c2cc3ccccc3[nH]c2=O)cc1OC`: the TGI in assay [2], in [3], in assay [4], in [5] and in [6] was greater than 100 µM in each case.

Consider `Brc1cc(C2OCCCO2)ccc1OCc1ccccc1`, for which the TGI in assay [1], in [4], in [5] and in assay [6] was greater than 100 µM in each case.

For the compound `CCN(CC)CCCNCc1cc(-c2ccccc2)nc2cc(Cl)ccc12`, in assay [8], the GI50 was 1.7 µM and the TGI was 4.73 µM.

On to `C=CC1C(CC2OC(CO)C(O)C(O)C2O)OC=C2C(=O)OCCC21O` (centres undefined), for which, in assay [8], the GI50 is 32 µM and the TGI is greater than 100 µM.

`CC(C)C[C@H](NC(=O)Cn1cccc(CNC(=O)c2ccccc2)c1=O)B(O)O`: in assay [8], the GI50 was 0.335 µM and the TGI came to 2.82 µM.

Consider `COc1cc(Cl)c(CC(=O)c2c[nH]c3ccccc23)cc1OC`, for which the TGI in assay [7] and in assay [8] was greater than 100 µM throughout.

As to `COc1cc(S(=O)(=O)Nc2nc(-c3ccc(N4C(=O)C(C)SC4c4ccccc4O)cc3)cs2)ccc1Cl` (centres undefined), in assay [8], the GI50 is 28.8 µM and the TGI is greater than 100 µM.

On to `O=C1NC(=O)C(c2cccc(Cl)c2)=C1Nc1ccc(Cl)c(C(=O)O)c1`, for which, in assay [8], the GI50 was greater than 25 µM and the TGI was greater than 25 µM.

On to `COc1ccc(C2NN=C3c4ccccc4CCC32)cc1` (centres undefined), for which, in [8], the GI50 was 6.12 µM and the TGI worked out at 47.3 µM.
